Measurements from patent publication US9783578B2, “Immunosuppression modulating compounds” (AURIGENE DISCOVERY TECHNOLOGIES LIMITED, priority 2010, dated 2017).
≈ marks a conversion by molar mass, not a printed value. Where two headings read alike, the source gives them in different places. Where a SMILES comes first, the peptide text is derived from it. Bridges are numbered along the chain shown (N, C = ends). Roman numbers before positions name the chains, in order.

Experiments:
[1] = tested on: mouse splenocytes inhibited by MDA-MB-231 tumour cells expressing PD-L1; test: Mouse splenocyte proliferation rescue, CFSE method; type: cell-based; conditions: screened at 100 nm concentration and compared with 100 nm Comp 8
Method: Mouse splenocytes harvested from 6-8 weeks old C57 BL6 mice.; RPMI 1640 (GIBCO, Cat #11875); DMEM with high glucose (GIBCO, Cat #D6429); Fetal Bovine Serum [Hyclone, Cat #SH30071.03]; Pencilin (10000 unit/ml)-Streptomycin(10,000 μg/ml) Liquid (GIBCO, Cat #15140-122); MEM Sodium Pyruvate solution 100 mM (100×), Liquid (GIBCO, Cat #11360); Nonessential amino acid (GIBCO, Cat #11140); L-Glutamine (GIBCO, Cat #25030); Anti-CD3 antibody (eBiosciences—16-0032); Anti-CD28 antibody (eBiosciences—16-0281); ACK lysis buffer (1 mL) (GIBCO, Cat #-A10492); Histopaque (density—1.083 gm/ml) (SIGMA 10831); Trypan blue solution (SIGMA-T8154); Hemacytometer (Bright line-SIGMA Z359629); FACS Buffer (PBS/0.1% BSA): Phosphate Buffered Saline (PBS) pH 7.2 (HiMedia TS1006) with 0.1% Bovine Serum Albumin (BSA) (SIGMA A7050) and sodium azide (SIGMA 08591); 5 mM stock solution of CFSE: CFSE stock solution was prepared by diluting lyophilized CFSE with 180 μL of Di methyl Sulfoxide (DMSO C2H6SO, SIGMA-D-5879) and aliquoted in to tubes for further use. Working concentrations were titrated from 10 μM to 1 μM. (eBioscience—650850-85); 96-well format ELISA plates (Corning CLS3390); BD FACS caliber (E6016).
Splenocytes harvested in a 50 ml falcon tube by mashing spleen in a 40 μm cell strainer were further treated with 1 ml ACK lysis buffer for 5 mins at RT. After washing with 9 ml of RPMI complete media, cells re-suspended in 3 ml of 1×PBS in a 15 ml tube. 3 ml of histopaque was added very carefully to the bottom of the tube without disturbing overlaying splenocyte suspension. Spin the tube at 800×g for 20 mins at RT. Opaque layer of lymphocytes is collected carefully without disturbing/mixing any of the layers. Cells washed twice with cold 1×PBS followed by total cell counting using trypan blue exclusion method and used further for cell based assays.
Tumour cells (MDMBA231) are cultured and maintained in high glucose complete DMEM media. 1×10^5 tumour cells were plated in 96 well plates along with required conc. of PD1 derived peptide and allowed to adhere at 37° C. for 4 hrs. 1×10^6 cells/ml of harvested splenocytes are treated with 5 μM of CFSE in pre warmed 1×PBS/0.1% BSA solution for 10 mins at 37° C. Excess CFSE was quenched using 5 volumes of ice-cold culture media to the cells and incubated on ice for 5 mins. CFSE labeled splenocytes were further given three washes with ice cold complete DMEM media. CFSE labeled 1×10^5 splenocytes added to above wells containing tumours cells and test compounds. Splenocytes were stimulated with anti-CD3 and anti-CD28 antibody (1 μg/ml each) and the co-culture was further incubated for 72 hrs at 37° C. with 5% CO2. Cells were harvested and washed thrice with ice cold FACS buffer and % proliferation was analyzed using a FACS caliber with 488 nm excitation and 521 nm emission filters. Each experimental condition was carried out in triplicates and each experiment at least carried out three times. Splenocyte proliferation was analyzed using cell quest FACS program and fold induction was calculated by normalizing individual values to percent background proliferation. Fold induction=Percent splenocyte proliferation/percent background proliferation Stimulated splenocytes: Splenocytes+anti-CD3/CD28 stimulation Background proliferation: Splenocytes+anti-CD3/CD28+Tumour Percent Proliferation rescue={(compound percent proliferation−Background percent proliferation)/(Stimulated percent proliferation−Background percent proliferation)}*100.

Organisms (not named) = test: organism not typed
Method: Required quantity of the compound was weighed and dissolved in water/dimethyl sulphoxide/suitable solvent to yield 1 mg/ml stock solution. The stock solution was diluted in MHB/CAMHB to yield 8 μg/ml or 64 μg/ml or 512 μg/ml solution as per requirement. Serial two fold dilutions of the compound was prepared using MHB/CAMHB in 96 well microtitre trays using a multichannel pipette. Organisms were grown in MHB/CAMHB for 4-5 hrs at 35±2° C., 110±10 rpm. Optical density (OD) of the cultures is adjusted to 625 nm which corresponds to 0.5 Mc Farland standard (1-2×10^8 cfu/ml) and further diluted to achieve a final inoculum of […]×10^4 cfu/well. Broth, compound and organism controls were set up. Microdilution trays were incubated at 35±2° C. for 16-20 hours in an ambient air incubator. After the incubation period, growth of organism in the wells was detected by unaided eye facilitated by a viewing device.

B16F10 cells = conditions: 5 mg/kg s.c.; during the period of dosing
Method: C57/Black6 female mice (Aurigene, Bangalore, India) aged 6 to 8 weeks were used for the experiment. Animals were acclimatized for a week in the experimental room before conducting the experiment.
On day 0, B16F10 cells grown in DMEM containing 10% FBS at 70 to 75% confluency were harvested and 1×10^6 cells per animal were injected to mice subcutaneously on the right flank region. […] Vehicle control group of mice received only saline. Each group consisted of ten animals. Body weight and clinical signs were recorded daily.

4T1 cells = conditions: 3 mg/kg s.c.; during dosing period
Method: On day 0, 4T1 cells grown in RPMI 1640 containing 10% FBS at 70 to 75% confluency were harvested and 0.1×10^6 cells per animal were injected along with matrigel orthotopically to mammary fat pad. […] Vehicle control group of mice received only saline. Each group consisted of ten animals. Body weight and clinical signs were recorded daily. Tumour volume was measured by slide callipers.

in vitro = test: in vitro
Method: Briefly, overnight fasted rats were sacrificed by cervical dislocation; kidneys were removed, washed with chilled saline and decapsulated. The renal tissue was sliced and a 5% homogenate was made in buffer containing 2 mM Tris-HCl, 50 mM mannitol pH 7.1 using 10 strokes in a Porter-Elvelhemhomogeniser. The homogenate was centrifuged at 250×g for 5 min and the pellet was re-homogenized (four strokes) in the same buffer. Both the homogenate preparations were pooled (an aliquot of sample was taken for enzyme assays), allowed to remain at 4° C. for 15 min and filtered using a nylon mesh cloth. To this, a 50% PEG solution in water was added to make a final concentration of 10% PEG, stirred for 15 min continuously at 4° C. and centrifuged at 7500×g for 10 min. The pellet was discarded and the supernatant was spun at 12,000×g for 10 min. This pellet was discarded and the supernatant was centrifuged at 27,000×g for 40 min. To the pellet, 15 ml suspension buffer containing 10 mM Tris-HCl and 300 mM mannitol, pH 7.1 was added, centrifuged at 27,000×g for 40 min. The pellet was washed twice with the same suspension buffer and finally suspended 1 ml of the same buffer using a syringe fitted with a 26-gauge needle.
1. Microsomal protein working solution was prepared as mentioned above (0.55 mg/ml) in 50 mM potassium phosphate buffer (pH 7.4)
2. Test compound (compound 69) working stock solutions at concentration of 4 μM was prepared in 50 mM potassium phosphate buffer (pH 7.4)
3. 125 μL of test compound (compound 69) from step 2 diluted with 100 μL of buffer and 275 μl of microsomal protein solution from step 2 was pre-incubated separately for 10 mins at 37° C.
4. Both the test solution from step 3 was mixed together and the reaction mixture was aliquoted at various time intervals and processed by SPE method.
Kidney brush border stability of the compounds was calculated as the amount of substrate metabolized by the incubation with kidney brush border microsomes. Initial amount of substrate (concentration at T0) was measured and KBBM stability was assessed by the disappearance of compound at various time points based on the change in analyte to internal standard peak height ratio using LCMS/MS (API 4000, AB Sciex). Results are expressed as mean±SD of test compound remaining at any given time point (Table VI).

[2] = rat, kidney brush border membrane (KBBM) preparation, pH 7.4

SNTSESF-NH2 [Compound 1]
Percent rescue for various compounds in mouse splenocyte proliferation CFSE based assay [1]: 96.5%

sntsesfk(sntsesf)frvtqlapkaqike-NH2 [Compound 13]
Percent rescue in mouse splenocyte proliferation CFSE based assay (cell printed with nM, control peptide) ([1]; control peptide): 0-12 nM-

Biotin-Ahx-sntsesfk(sntsesf)frvtqlapkaqike-NH2 [Compound 60]
Percent rescue for various compounds in mouse splenocyte proliferation CFSE based assay [1]: 14.9%

CC[C@H](C)[C@H](NC(=O)[C@H](CCC(N)=O)NC(=O)[C@H](C)NC(=O)[C@H](CCCCN)NC(=O)[C@@H]1CCCN1C(=O)[C@H](C)NC(=O)[C@H](CC(C)C)NC(=O)[C@H](CCC(N)=O)NC(=O)[C@@H](NC(=O)[C@@H](NC(=O)[C@H](CCCNC(=N)N)NC(=O)[C@H](Cc1ccccc1)NC(=O)C(CCCCNC(=O)[C@H](Cc1ccccc1)NC(=O)[C@H](CO)NC(=O)[C@H](CCC(=O)O)NC(=O)[C@H](CO)NC(=O)[C@@H](NC(=O)[C@H](CC(N)=O)NC(=O)[C@@H](N)CO)[C@@H](C)O)NC(=O)[C@H](Cc1ccccc1)NC(=O)[C@H](CO)NC(=O)[C@H](CCC(=O)O)NC(=O)[C@H](CO)NC(=O)[C@@H](NC(=O)[C@H](CC(N)=O)NC(=O)[C@@H](N)CO)[C@@H](C)O)C(C)C)[C@@H](C)O)C(=O)N[C@@H](CCCCN)C(=O)N[C@@H](CCC(=O)O)C(N)=O (stereo partly shown) [Compound 8]
MIC (Organisms (not named); broth microdilution, 16-20 hours at 35±2° C.): > 32 µg/mL
Body weight (B16F10 cells): no body weight reduction
Clinical signs (B16F10 cells): no clinical signs
Body weight (4T1 cells): no body weight reduction

O=C(O)c1cn(C2CC2)c2cc(N3CCNCC3)c(F)cc2c1=O [ciprofloxacin]
MIC (Organisms (not named)): 0.007 µg/mL (≈ 0.0211 µM)

CGAISLAPKAQIKE-NH2 [Compound 5]
Percent rescue for various compounds in mouse splenocyte proliferation CFSE based assay [1]: 68%

Biotin-Ahx-EKIQAKPAYWNLVK(KDTQNS)DTQNS-NH2 [Compound 61]
Percent rescue for various compounds in mouse splenocyte proliferation CFSE based assay [1]: 67%

FRVTQLAPKAQIKE-NH2 [Compound 43]
Percent rescue for various compounds in mouse splenocyte proliferation CFSE based assay [1]: 66%

SNTSESFFRVTQLAPKAQIKE-NH2 [Compound 26]
Percent rescue for various compounds in mouse splenocyte proliferation CFSE based assay [1]: 86.6%

CC[C@H](C)[C@H](NC(=O)[C@H](CCCCN)NC(=O)[C@H](C)NC(=O)[C@H](CCCCN)NC(=O)[C@@H]1CCCN1C(=O)[C@H](Cc1c[nH]cn1)NC(=O)[C@H](CC(C)C)NC(=O)[C@H](CCC(N)=O)NC(=O)[C@@H](NC(=O)[C@@H](NC(=O)[C@H](CCC(N)=O)NC(=O)[C@H](Cc1ccccc1)NC(=O)[C@H](CCCCNC(=O)[C@H](CC(C)C)NC(=O)[C@H](CC(=O)O)NC(=O)[C@H](CCC(=O)O)NC(=O)[C@H](CO)NC(=O)[C@H](Cc1c[nH]c2ccccc12)NC(=O)[C@H](CC(N)=O)NC(=O)[C@@H](N)CO)NC(=O)[C@H](CC(C)C)NC(=O)[C@H](CC(=O)O)NC(=O)[C@H](CCC(=O)O)NC(=O)[C@H](CO)NC(=O)[C@H](Cc1c[nH]c2ccccc12)NC(=O)[C@H](CC(N)=O)NC(=O)[C@@H](N)CO)[C@@H](C)CC)[C@@H](C)CC)C(=O)N[C@@H](CCC(=O)O)C(=O)N[C@@H](CCC(=O)O)C(N)=O [Compound 69] (I: H-SNWSEDLKFQIIQLHPKAKIEE-NH2 / II: H-SNWSEDL; amide I:8-II:C)
Percent rescue for various compounds in mouse splenocyte proliferation CFSE based assay [1]: 48%
RKBBM % compound remaining (in vitro; 0 min): 100%
remaining at 10 min, 1 μM (in vitro; [2]): 100%
remaining at 0.5 h, 1 μM (in vitro; [2]): 98%
remaining at 1 h, 1 μM (in vitro; [2]): 81%

EDRSQPGQDCR-NH2 [Compound 4]
Percent rescue for various compounds in mouse splenocyte proliferation CFSE based assay [1]: 74.7%

C[C@H]1COc2c(N3CCN(C)CC3)c(F)cc3c(=O)c(C(=O)O)cn1c23 [levofloxacin]
MIC (Organisms (not named)): 0.015 µg/mL (≈ 0.0415 µM)
